Experimental data taken from PMC6934184, “Selective DNA-PKcs inhibition extends the therapeutic index of localized radiotherapy and chemotherapy” (The Journal of Clinical Investigation, 2019).

Biological target: T1, ROS1 (Homo sapiens, UniProt P08922)
T1 construct: purchased Thermo Fisher Scientific (Life Technologies) SelectScreen
Test: SelectScreen Z'LYTE
Assay type: biochemical
Procedure, shortened: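 NU5455 was profiled across the SelectScreen Broad panel of kinase activity and binding assays. Z'LYTE reactions such as CSF1R ran at apparent Km ATP, while the Adapta CAMK1 assay used ATP listed as 10. Values are given as percent.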

T1 sequence (P08922 28-2347): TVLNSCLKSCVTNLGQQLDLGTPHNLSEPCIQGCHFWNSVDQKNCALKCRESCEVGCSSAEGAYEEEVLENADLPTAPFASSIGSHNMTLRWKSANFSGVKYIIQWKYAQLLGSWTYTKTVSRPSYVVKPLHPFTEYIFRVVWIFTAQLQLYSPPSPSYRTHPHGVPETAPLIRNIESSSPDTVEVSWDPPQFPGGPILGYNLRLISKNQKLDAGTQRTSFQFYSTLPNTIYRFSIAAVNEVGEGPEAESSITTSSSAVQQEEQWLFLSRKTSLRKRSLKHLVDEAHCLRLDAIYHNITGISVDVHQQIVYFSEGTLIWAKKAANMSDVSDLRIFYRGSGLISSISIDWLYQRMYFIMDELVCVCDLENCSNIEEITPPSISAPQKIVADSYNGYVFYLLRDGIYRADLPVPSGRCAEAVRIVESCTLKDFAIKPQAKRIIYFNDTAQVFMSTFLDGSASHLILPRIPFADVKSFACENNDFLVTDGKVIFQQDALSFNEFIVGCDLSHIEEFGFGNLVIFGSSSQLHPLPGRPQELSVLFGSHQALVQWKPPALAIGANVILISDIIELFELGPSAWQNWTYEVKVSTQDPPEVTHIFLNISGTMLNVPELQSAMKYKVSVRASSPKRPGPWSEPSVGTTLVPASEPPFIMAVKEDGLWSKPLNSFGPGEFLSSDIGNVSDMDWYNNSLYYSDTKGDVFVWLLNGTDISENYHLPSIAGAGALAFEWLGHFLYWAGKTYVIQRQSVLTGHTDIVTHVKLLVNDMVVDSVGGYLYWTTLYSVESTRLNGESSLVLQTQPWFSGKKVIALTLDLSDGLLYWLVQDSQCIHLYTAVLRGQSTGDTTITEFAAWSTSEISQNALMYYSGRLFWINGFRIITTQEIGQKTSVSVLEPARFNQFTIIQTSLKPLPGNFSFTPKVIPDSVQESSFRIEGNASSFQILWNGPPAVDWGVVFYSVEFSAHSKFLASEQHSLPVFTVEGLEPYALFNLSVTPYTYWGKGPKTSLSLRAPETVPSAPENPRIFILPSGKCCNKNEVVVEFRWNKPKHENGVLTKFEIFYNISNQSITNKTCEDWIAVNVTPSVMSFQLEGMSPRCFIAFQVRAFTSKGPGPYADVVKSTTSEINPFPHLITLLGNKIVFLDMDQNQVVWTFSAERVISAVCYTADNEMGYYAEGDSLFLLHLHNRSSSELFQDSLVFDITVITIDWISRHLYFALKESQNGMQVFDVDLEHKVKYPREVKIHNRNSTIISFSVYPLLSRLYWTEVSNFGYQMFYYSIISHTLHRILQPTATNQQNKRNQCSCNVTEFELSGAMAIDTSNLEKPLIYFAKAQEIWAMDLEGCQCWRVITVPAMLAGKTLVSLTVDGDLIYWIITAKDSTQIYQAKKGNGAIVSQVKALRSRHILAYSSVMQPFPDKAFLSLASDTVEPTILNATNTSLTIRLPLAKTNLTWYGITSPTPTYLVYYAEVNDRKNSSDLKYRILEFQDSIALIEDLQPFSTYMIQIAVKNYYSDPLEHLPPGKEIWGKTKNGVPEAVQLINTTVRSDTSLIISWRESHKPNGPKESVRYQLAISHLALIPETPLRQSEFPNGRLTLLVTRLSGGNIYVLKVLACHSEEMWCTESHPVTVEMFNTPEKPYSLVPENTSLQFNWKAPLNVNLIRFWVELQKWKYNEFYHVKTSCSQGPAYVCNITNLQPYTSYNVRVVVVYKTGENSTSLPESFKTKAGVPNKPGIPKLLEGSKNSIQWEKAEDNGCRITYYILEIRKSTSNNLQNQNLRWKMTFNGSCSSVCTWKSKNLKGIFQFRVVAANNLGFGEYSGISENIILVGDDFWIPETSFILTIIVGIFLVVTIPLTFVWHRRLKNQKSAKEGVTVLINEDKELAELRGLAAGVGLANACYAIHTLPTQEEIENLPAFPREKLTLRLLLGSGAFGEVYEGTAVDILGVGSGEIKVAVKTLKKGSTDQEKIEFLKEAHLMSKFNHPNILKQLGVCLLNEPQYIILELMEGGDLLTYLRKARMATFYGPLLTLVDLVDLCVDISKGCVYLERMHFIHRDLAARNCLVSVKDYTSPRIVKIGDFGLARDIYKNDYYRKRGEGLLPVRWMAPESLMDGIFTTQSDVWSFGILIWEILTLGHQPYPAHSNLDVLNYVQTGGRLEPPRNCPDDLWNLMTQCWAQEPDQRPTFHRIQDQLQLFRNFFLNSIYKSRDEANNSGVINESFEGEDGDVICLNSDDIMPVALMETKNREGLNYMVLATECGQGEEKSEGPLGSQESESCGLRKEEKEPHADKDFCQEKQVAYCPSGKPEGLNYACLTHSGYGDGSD

Q: Which inhibition at 1 µM does the source give for CN(C(=O)CN1CCOCC1)c1ccc2sc3c(-c4cccc5c(=O)cc(N6CC7CCC(C6)O7)oc45)cccc3c2c1 [NU5455] here?
A: The inhibition at 1 µM was 8%.
